The values below come from US20250320397A1, “NON-PFAS REFRIGERANTS AND METHODS OF COOLING ELECTRONICS” (Honeywell International Inc., priority 2024, published 2025).

Data set [1] is described as follows: Dielectric constant measured with Agilent 85070 Dielectric Probe (Example 2). It is filed as physicochemical. Conditions: ambient pressure, room temperature (approximately 23° C.); for Dielectric Constant (Dk): Table 3; for Dk: Table 5, probe calibrated 1 GHz to 20 GHz. The method, then:
“Dielectric Constant” means the dielectric constant as measured in accordance with ASTM D150-11 statically and at room temperature.
(§1) The boiling point (“BP”) of HFO-1336pyy and HFO-1336eyc were determined and the results are reported below in Table 5. The dielectric constant (“Dk”) of HFO-1336pyy and HFO-1336eyc(E) were measured, whereas the Dk of HFO*1336eyc (Z) was calculated using the Kirkwood model as described in Harvey, A. H. and Lemmon, E. W., International Journal of Thermophysics, Vol. 26, No. 1, 2005. The measured dielectric property were determined using the Agilent 85070 Dielectric Probe. All measurements were made at ambient pressure and room temperature (approximately 23° C.). Prior to making measurements, the system was calibrated from 1 GHz to 20 GHz with an open circuit, a short circuit, and DI water (@22.4° C.) standard. The accuracy of the probe is given as: Dielectric constant, er′=er′+/−0.05|er*| with er″=er″+/−0.05|er*| and (loss=er″/er′).

A short description of data set [2]: Boiling point determination (Example 2). Type of data set: physicochemical. Conditions: for Bp: Table 3, approximate physical properties; for BP: Table 5. The method, then:
as §1

The text on data set [3]:
This is experimentally determined where a liquid spill is simulated by pouring the liquid of interest into a watch glass. The flammability of, primarily, a single component or a blend is characterized throughout the evaporation of the puddle to dryness. […] The watch glass test is a conservative test because no external heat is applied to the watch glass, which is chilled by the evaporating solvent. The cold watch glass acts as a condenser for the vapors of higher boiling point blend components. In the case where a flammable component is high boiling, its concentration increases throughout the evaporation time, rendering the mixture more flammable than it would be under temperature-controlled blend segregation experiments.
This was experimentally determined where a liquid spill was simulated by pouring HFO-1336pyy(Z) into a watch glass. The flammability was characterized throughout the evaporation of the puddle to dryness.

Turning to `F/C(=C(\F)C(F)F)C(F)F` [Compound 1, (Z)-1,1,2,3,4,4-hexafluorobut-2-ene], in data set [1], the “Dielectric Constant (Dk)” value turned out to be 6.72 and the Dk is listed as 6.72. For the same molecule, in data set [2], the Bp turned out to be 58.2 °C and the BP was 58.2 °C.

For `F/C(=C(/F)C(F)F)C(F)F` [Compound 2, (E)-1,1,2,3,4,4-hexafluorobut-2-ene], in data set [1], the “Dielectric Constant (Dk)” value worked out at 4.34 and the Dk amounted to 4.34. Further, in data set [2], the Bp came to 51.7 °C and the BP stood at 51.7 °C. The “flammability (flame on open flame passed across liquid surface)” value (“flammability” below) in data set [3] was “no flame was observed”.

In data set [2], `F/C=C(\F)C(F)(F)C(F)F` [Compound 3, (Z)-1,2,3,3,4,4-hexafluorobut-1-ene] gave a Bp of 40.4 °C and a BP of 40.4 °C. Besides, in data set [3], the “flammability” value is given as “no flame is observed”.

For `F/C=C(/F)C(F)(F)C(F)F` [Compound 4, (E)-1,2,3,3,4,4-hexafluorobut-1-ene], in data set [1], the “Dielectric Constant (Dk)” value is 5.09 and the Dk came to 5.09. In data set [2], this molecule displayed a Bp of 45.3 °C and a BP of 45.3 °C. For the same molecule, the “flammability” value in data set [3] is listed as “no flame was observed”.
